In ChEMBL document CHEMBL5512615, “Targeting autophagy drug discovery: Targets, indications and development trends” (Eur J Med Chem, 2024):

How the values were obtained:
A549 = assay: cells; settings: Homo sapiens
Description: Antiproliferative activity against human A549 cells assessed as reduction in cell viability by MTT assay

[1] = biological target: T1, Patatin-like phospholipase domain-containing protein 2 (Homo sapiens, UniProt Q96AD5)
T1 sequence (Q96AD5 whole entry): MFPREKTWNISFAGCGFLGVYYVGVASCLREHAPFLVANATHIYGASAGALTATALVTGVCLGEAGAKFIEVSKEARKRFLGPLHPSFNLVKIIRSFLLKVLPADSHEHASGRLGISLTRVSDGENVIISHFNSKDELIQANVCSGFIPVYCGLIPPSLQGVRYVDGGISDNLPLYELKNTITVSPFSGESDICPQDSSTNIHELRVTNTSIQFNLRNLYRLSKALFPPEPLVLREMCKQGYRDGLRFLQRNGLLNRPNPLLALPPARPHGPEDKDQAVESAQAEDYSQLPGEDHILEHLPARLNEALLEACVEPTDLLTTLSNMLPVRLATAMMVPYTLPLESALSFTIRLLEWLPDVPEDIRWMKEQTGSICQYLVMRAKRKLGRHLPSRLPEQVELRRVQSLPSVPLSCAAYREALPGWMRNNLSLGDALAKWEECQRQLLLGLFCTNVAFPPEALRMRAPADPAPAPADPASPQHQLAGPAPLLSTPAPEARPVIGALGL
Description: Inhibition of ATGL ubiquitination in human HepG2 cells assessed as inhibition constant

[2] = biological target: GABA-A receptor; anion channel
Description: Inhibition of GABA receptor (unknown origin)

[3] = biological target: Ubiquitin carboxyl-terminal hydrolase 10 (Homo sapiens, UniProt Q14694); assay: Inhibition of USP10 (unknown origin)
[4] = biological target: T2, Ubiquitin carboxyl-terminal hydrolase 13 (Homo sapiens, UniProt Q92995)
T2 sequence (Q92995 whole entry): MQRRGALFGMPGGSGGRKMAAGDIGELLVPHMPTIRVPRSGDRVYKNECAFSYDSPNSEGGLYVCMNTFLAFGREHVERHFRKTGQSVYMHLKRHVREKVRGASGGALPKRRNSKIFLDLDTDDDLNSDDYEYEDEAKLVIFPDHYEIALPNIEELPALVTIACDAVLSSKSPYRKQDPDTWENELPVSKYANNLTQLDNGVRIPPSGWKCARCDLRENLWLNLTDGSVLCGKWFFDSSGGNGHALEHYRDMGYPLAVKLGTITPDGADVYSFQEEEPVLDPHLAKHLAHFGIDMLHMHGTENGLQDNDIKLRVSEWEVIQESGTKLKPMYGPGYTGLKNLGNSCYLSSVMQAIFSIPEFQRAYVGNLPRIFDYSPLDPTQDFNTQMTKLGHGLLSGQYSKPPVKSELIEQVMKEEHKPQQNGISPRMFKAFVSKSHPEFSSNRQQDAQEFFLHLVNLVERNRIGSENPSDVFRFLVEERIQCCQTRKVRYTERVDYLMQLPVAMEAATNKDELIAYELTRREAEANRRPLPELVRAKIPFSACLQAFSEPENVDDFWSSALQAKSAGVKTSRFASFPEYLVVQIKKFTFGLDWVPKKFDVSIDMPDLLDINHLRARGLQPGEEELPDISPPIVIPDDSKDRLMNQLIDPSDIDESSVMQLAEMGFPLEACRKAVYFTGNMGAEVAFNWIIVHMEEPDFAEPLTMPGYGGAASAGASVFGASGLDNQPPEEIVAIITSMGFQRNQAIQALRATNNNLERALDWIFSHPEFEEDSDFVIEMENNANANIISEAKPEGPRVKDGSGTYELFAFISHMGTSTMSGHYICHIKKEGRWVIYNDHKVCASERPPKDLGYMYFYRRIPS
Description: Inhibition of USP13 (unknown origin)

Ferritin heavy chain = Ferritin heavy chain (Homo sapiens, UniProt P02794)
Chain of Ferritin heavy chain (P02794 whole entry): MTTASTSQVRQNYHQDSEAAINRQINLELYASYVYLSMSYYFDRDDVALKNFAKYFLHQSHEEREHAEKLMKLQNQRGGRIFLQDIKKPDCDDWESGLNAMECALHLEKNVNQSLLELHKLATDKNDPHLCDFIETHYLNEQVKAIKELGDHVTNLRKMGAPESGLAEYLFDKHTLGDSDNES
Description: Inhibition of FTH1 (unknown origin)

Chain of Ubiquitin carboxyl-terminal hydrolase 10 (Q14694 whole entry): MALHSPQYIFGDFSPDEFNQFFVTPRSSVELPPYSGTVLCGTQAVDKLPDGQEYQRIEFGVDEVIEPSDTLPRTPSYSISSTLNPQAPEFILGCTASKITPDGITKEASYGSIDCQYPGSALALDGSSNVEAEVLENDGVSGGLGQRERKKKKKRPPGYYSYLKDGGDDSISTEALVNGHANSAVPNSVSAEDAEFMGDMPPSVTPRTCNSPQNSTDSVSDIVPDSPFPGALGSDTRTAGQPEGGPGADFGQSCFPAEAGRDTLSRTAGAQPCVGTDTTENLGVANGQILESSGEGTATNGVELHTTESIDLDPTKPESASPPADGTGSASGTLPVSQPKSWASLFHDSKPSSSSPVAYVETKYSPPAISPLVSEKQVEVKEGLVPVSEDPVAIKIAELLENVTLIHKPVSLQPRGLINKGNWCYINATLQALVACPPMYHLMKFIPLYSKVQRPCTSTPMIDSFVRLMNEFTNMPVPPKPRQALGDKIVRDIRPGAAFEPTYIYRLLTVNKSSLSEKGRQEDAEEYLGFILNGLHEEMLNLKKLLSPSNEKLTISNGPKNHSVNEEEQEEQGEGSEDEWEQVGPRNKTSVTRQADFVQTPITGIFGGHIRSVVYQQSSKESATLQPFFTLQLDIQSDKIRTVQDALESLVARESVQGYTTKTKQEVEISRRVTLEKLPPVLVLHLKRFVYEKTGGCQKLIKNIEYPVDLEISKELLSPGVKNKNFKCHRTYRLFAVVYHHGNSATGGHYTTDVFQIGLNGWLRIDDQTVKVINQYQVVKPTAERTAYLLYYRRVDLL

Which EC50 (A549) does the source give for `OC[C@H]1O[C@@H](c2ccc(Cl)c(Cc3ccc(O[C@H]4CCOC4)cc3)c2)[C@H](O)[C@@H](O)[C@@H]1O` [EMPAGLIFLOZIN] here?
The EC50 was 3 nM.

Which Ki [1] does the source give for `N[C@@H]1CCCN(c2c(/C=C3\SC(=O)NC3=O)cccc2-c2ccccc2)C1` here?
The Ki was 0.017 nM.

Which IC50 [2] does the source give for `C[C@H]1[C@H](C)CC[C@]2(C(=O)O)CC[C@]3(C)C(=CC[C@@H]4[C@@]5(C)C[C@@H](O)[C@H](O)[C@@](C)(CO)[C@@H]5CC[C@]43C)[C@H]12` [ASIATIC ACID] here?
Its IC50 is 5900 nM.

With `Fc1ccc(CNc2ncnc3ccc(F)cc23)cc1` as the compound, how does the IC50 [3] read?
Its IC50 is 580 nM.

And the IC50 [4]?
The IC50 was 690 nM.

Which IC50 (Ferritin heavy chain) does the source give for `C=C1CC[C@H]2O[C@]2(C)CC[C@@H]2[C@@H]1CC2(C)C` [(-)-CARYOPHYLLENE OXIDE] here?
The IC50 was 1 nM.
